Results: article PMC3016232 (Cancer Chemotherapy and Pharmacology, 2010)
Values belong to the compound of their own block, whether it stands above or below them.

Legend:
clinical = type: in vivo, human
UGT1A = test: Formation of SN-38G from SN-38 in pooled human liver microsomes; type: in vitro ADME; conditions: SN-38 5 μM, 30 min, microsomal protein 0.8 mg/mL
UGT1A1 mRNA = UGT1A1 mRNA levels in HCT116 cells by quantitative RT-PCR; type: cell-based, human; conditions: HCT 116 cells; methimazole 25–100 μM; up to ~48 h
[1] = type: in vivo, human
[2] = courses with methimazole, plasma
[3] = courses without methimazole, plasma
[4] = mean of the courses with or without methimazole, plasma

Structure (SMILES): CCc1c2c(nc3ccc(O)cc13)-c1cc3c(c(=O)n1C2)COC(=O)[C@]3(O)CC [SN-38, 7-Ethyl-10-hydroxy camptothecin]
- mean relative extent of glucuronidation (ratio of SN-38G over SN-38) (clinical; courses with methimazole): 10.1
- mean SN-38 AUC (clinical; [2]): 125 ng·h/mL
- mean relative extent of glucuronidation (ratio of SN-38G over SN-38) (clinical; courses without methimazole): 6.85
- mean SN-38 AUC (clinical; [3]): 110 ng·h/mL

Structure (SMILES): CC(=O)N1CCN(c2ccc(OCC3COC(Cn4ccnc4)(c4ccc(Cl)cc4Cl)O3)cc2)CC1 (centres unmarked) [ketoconazole]
- reduction of SN-38G formation (UGT1A; ketoconazole 25 μM): 43%

Structure (SMILES): CCc1c2c(nc3ccc(OC(=O)N4CCC(N)CC4)cc13)-c1cc3c(c(=O)n1C2)COC(=O)[C@]3(O)CC [NPC, 7-Ethyl-10-[4-amino-1-piperidino]-carbonyloxycamptothecin]
- mean exposure (AUC) to NPC (clinical; [4]): 32.3 ng·h/mL

Structure (SMILES): Cn1cc[nH]c1=S [methimazole]
- effect on SN-38G formation (UGT1A; methimazole 37.5 μM): did not decrease
- induction of UGT1A1 mRNA levels compared to untreated control cells (UGT1A1 mRNA): 15–18 fold

Structure (SMILES): CCc1c2c(nc3ccc(O[C@@H]4O[C@H](C(=O)O)[C@@H](O)[C@H](O)[C@H]4O)cc13)-c1cc3c(c(=O)n1C2)COC(=O)[C@]3(O)CC [SN-38G]
- mean SN-38G AUC (clinical; [2]): 1,255 ng × h/mL
- mean SN-38G AUC (clinical; [3]): 753 ng·h/mL

Structure (SMILES): CCc1c2c(nc3ccc(OC(=O)N4CCC(NCCCCC(=O)O)CC4)cc13)-c1cc3c(c(=O)n1C2)COC(=O)C3(O)CC (centres unmarked) [APC, 7-Ethyl-10-[4-N-(5-aminopentanoic acid)-1-piperidino]-carbonyloxy-camptothecin]
- mean exposure (AUC) to APC (clinical; [4]): 3,018 ng × h/mL

- mean absolute neutrophil count nadir ([1]; mean of all courses): 4.2e+09 L⁻¹
- AUC (clinical; male, human, in vivo): 16100 ng·h/mL
Structure (SMILES): CCc1c2c(nc3ccc(OC(=O)N4CCC(N5CCCCC5)CC4)cc13)-c1cc3c(c(=O)n1C2)COC(=O)[C@]3(O)CC [irinotecan]
- Irinotecan-related toxicity ([1]; all courses): mild
